Data published in US9822131B2, “Certain chemical entities, compositions and methods” (Intellikine LLC, priority 2008, dated 2017).
Like-named read-outs stand apart in the source and are kept apart here.

What was measured:
[1] = tested on: adjuvant induced arthritis model; assay: Adjuvant induced arthritis assay; assay type: in vivo
Description: Isoflurane-anesthetized Lewis rats (200-250 g) were implanted with an intrathecal (IT) catheter. After a 6 d recovery period, all animals except those that appeared to have sensory or motor abnormalities (fewer than 5% of the total number) were used for experiments. For IT administration, 10 μl of drug or saline followed by 10 μl of isotonic saline was injected through the catheter.
Lewis rats were immunized at the base of the tail with 0.1 ml of complete Freund's adjuvant (CFA) on day 0 several days after catheter implantation (n=6/group). Drug (e.g. one or more compounds of the present invention or vehicle) treatment was generally started on day 8 and continued daily until day 20. Clinical signs of arthritis generally begin on day 10, and paw swelling was determined every second day by water displacement plethysmometry.

[2] = tested on: established type II collagen induced arthritis; assay: Rat established type II collagen induced arthritis assay; assay type: in vivo; settings: oral
Description: In order to examine the dose responsive efficacy of the compounds of the present invention in inhibiting the inflammation, cartilage destruction and bone resorption of 7 day established type II collagen induced arthritis in rats, compounds were administered orally daily or twice daily for 6 days.
Female Lewis rats were anesthetized and given collagen injections prepared and administered as described previously on day 0. On day 6, animals were anesthetized and given a second collagen injection. Caliper measurements of normal (pre-disease) right and left ankle joints were performed on day 9. On days 10-11, arthritis typically occurred and rats were randomized into treatment groups. Randomization was performed after ankle joint swelling was obviously established and there was good evidence of bilateral disease.
After an animal was selected for enrollment in the study, treatment was initiated by the oral route. Animals were given vehicle, control (Enbrel) or compound doses, twice daily or once daily (BID or QD respectively). Dosing was administered on days 1-6 using a volume of 2.5 ml/kg (BID) or 5 ml/kg (QD) for oral solutions. Rats were weighed on days 1-7 following establishment of arthritis and caliper measurements of ankles taken every day. Final body weights were taken on day 7 and animals were euthanized.

[3] = tested on: collagen induced developing arthritis model; assay: Rat developing type II collagen induced arthritis assay; assay type: in vivo
Description: In order to study the effects of the compounds of the present invention on the autoimmune disease arthritis, a collagen induced developing arthritis model was used. Female Lewis rats were given collagen injections at day 0. Bovine type II collagen was prepared as a 4 mg/ml solution in 0.01N acetic acid. Equal volumes of collagen and Freund's incomplete adjuvant were emulsified by hand mixing until a bead of the emulsified material held its form in water. Each rodent received a 300 μl injection of the mixture at each injection time spread over three subcutaneous sites on the back.
Oral compound administration began on day 0 and continued through day 16 with vehicle (5% NMP, 85% PEG 400, 10% Solutol) or compounds of the present invention in vehicle or control (e.g. methotrexate) at 12 hour intervals daily. Rats were weighed on days 0, 3, 6, 9-17 and caliper measurements of ankles taken on days 9-17. Final body weights were taken, and then the animals were euthanized on day 17. After euthanization, blood was drawn and hind paws and knees were removed. Blood was further processed for pharmacokinetics experiments as well as an anti-type II collagen antibody ELISA assay. Hind paws were weighed and then with the knees preserved in 10% formalin. The paws and knees were subsequently processed for microcopy. Livers, spleen and thymus were also weighed. Sciatic nerves were prepared for histopathology.
Knee and ankle joints were fixed for 1-2 days and decalcified for 4-5 days. Ankle joints were cut in half longitudinally, knees were cut in half along the frontal plane. Joints were then processed, embedded, sectioned and stained with toluidine blue. Scoring of the joints was done according to the following criteria:
Percent inhibition of paw weight and AUC was calculated using the following formula: % Inhibition=A−B/A×100 A=Mean Disease Control−Mean Normal B=Mean Treated−Mean Normal

Balb/c splenic B cells = assay: B cell activation and proliferation assay (Alamar Blue); assay type: cell-based; settings: Mus musculus
Description: The assay is performed in a 96 well microtiter plate using Alamar Blue reduction. Balb/c splenic B cells are purified over a Ficoll-Paque™ PLUS gradient followed by magnetic cell separation using a MACS B cell Isolation Kit (Miletenyi). Cells are plated in 90 ul at 50,000 cells/well in B Cell Media (RPMI+10% FBS+Penn/Strep+50 uM bME+5 mM HEPES). A compound disclosed herein is diluted in B Cell Media and added in a 10 ul volume. Plates are incubated for 30 min at 37 C and 5% CO2 (0.2% DMSO final concentration). A 50 ul B cell stimulation cocktail is then added containing either 10 ug/ml LPS or 5 ug/ml F(ab′)2 Donkey anti-mouse IgM plus 2 ng/ml recombinant mouse IL4 in B Cell Media. […] A volume of 15 uL of Alamar Blue reagent is added to each well and plates are incubated for 5 hours at 37 C and 5% CO2. Alamar Blue fluoresce is read at 560Ex/590Em, and IC50 or EC50 values are calculated using GraphPad Prism 5.

basophilic granulocytes = assay: Basotest assay; assay type: cell-based; settings: heparinized whole blood, dust mite or grass extract allergen
Description: The baseotest assay is performed using Orpegen Pharma Basotest reagent kit. Heparinized whole blood is pre-incubated with test compound or solvent at 37 C for 20 min. Blood is then incubated with assay kit stimulation buffer (to prime cells for response) followed by allergen (dust mite extract or grass extract) for 20 min. The degranulation process is stopped by incubating the blood samples on ice. The cells are then labeled with anti-IgE-PE to detect basophilic granulocytes, and anti-gp53-FITC to detect gp53 (a glycoprotein expressed on activated basophils). After staining red blood cells are lysed by addition of Lysing Solution. Cells are washed, and analyzed by flow cytometry.

PI3K γ = biological target: T1, PI3K γ (Homo sapiens, UniProt P48736); assay: PI3K γ in vitro kinase inhibition assay; assay type: biochemical
T1 construct: purchased Sigma
Description: (§1) IC50 values are measured using either a standard TLC assay for lipid kinase activity (described below) or a high-throughput membrane capture assay. Kinase reactions are performed by preparing a reaction mixture containing kinase, inhibitor (2% DMSO final concentration), buffer (25 mM HEPES, pH 7.4, 10 mM MgCl2), and freshly sonicated phosphatidylinositol (100 μg/ml). Reactions are initiated by the addition of ATP containing 10 μCi of γ-32P-ATP to a final concentration 10 or 100 μM and allowed to proceed for 5 minutes at room temperature. For TLC analysis, reactions are then terminated by the addition of 105 μl 1N HCl followed by 160 μl CHCl3:MeOH (1:1). The biphasic mixture is vortexed, briefly centrifuged, and the organic phase is transferred to a new tube using a gel loading pipette tip precoated with CHCl3. This extract is spotted on TLC plates and developed for 3-4 hours in a 65:35 solution of n-propanol:1M acetic acid. The TLC plates are then dried, exposed to a phosphorimager screen (Storm, Amersham), and quantitated.
(§2) Briefly, the assay is a time resolved FRET assay that indirectly measures PIP3 product formed by the activity of a PI3-K. The kinase reaction is performed in a microtiter plate (e.g., a 384 well microtiter plate). The total reaction volume is approximately 20 ul per well. In the first step, each well receives 2 ul of test compound in 20% dimethylsulphoxide resulting in a 2% DMSO final concentration. Next, approximately 14.5 ul of a kinase/PIP2 mixture (diluted in 1× reaction buffer) is added per well for a final concentration of 0.25-0.3 ug/ml kinase and 10 uM PIP2. […] To start the reaction, 3.5 ul of ATP (diluted in 1× reaction buffer) is added per well for a final concentration of 10 uM ATP. The plate is sealed and incubated for 1 hour at room temperature. The reaction is stopped by adding 5 ul of Stop Solution per well and then 5 μl of Detection Mix is added per well. The plate is sealed, incubated for 1 hour at room temperature, and then read on an appropriate plate reader. Data is analyzed and IC50s are generated using GraphPad Prism 5.

PI3K δ = biological target: T2, PI3K δ (Homo sapiens, UniProt O00329); assay: PI3K δ in vitro kinase inhibition assay; assay type: biochemical
T2 construct: purchased Upstate
Description: as §1, §2

PI3K α = biological target: T3, PI3K α (Homo sapiens, UniProt P42336); assay: PI3K α in vitro kinase inhibition assay; assay type: biochemical
T3 construct: purchased Upstate
Description: as §1, §2

PI3K β = biological target: T4, PI3K β (Homo sapiens, UniProt P42338); assay: PI3K β in vitro kinase inhibition assay; assay type: biochemical
T4 construct: purchased Upstate
Description: as §1, §2

[4] = read-out: B cell proliferation EC50

T3 sequence (P42336 whole entry): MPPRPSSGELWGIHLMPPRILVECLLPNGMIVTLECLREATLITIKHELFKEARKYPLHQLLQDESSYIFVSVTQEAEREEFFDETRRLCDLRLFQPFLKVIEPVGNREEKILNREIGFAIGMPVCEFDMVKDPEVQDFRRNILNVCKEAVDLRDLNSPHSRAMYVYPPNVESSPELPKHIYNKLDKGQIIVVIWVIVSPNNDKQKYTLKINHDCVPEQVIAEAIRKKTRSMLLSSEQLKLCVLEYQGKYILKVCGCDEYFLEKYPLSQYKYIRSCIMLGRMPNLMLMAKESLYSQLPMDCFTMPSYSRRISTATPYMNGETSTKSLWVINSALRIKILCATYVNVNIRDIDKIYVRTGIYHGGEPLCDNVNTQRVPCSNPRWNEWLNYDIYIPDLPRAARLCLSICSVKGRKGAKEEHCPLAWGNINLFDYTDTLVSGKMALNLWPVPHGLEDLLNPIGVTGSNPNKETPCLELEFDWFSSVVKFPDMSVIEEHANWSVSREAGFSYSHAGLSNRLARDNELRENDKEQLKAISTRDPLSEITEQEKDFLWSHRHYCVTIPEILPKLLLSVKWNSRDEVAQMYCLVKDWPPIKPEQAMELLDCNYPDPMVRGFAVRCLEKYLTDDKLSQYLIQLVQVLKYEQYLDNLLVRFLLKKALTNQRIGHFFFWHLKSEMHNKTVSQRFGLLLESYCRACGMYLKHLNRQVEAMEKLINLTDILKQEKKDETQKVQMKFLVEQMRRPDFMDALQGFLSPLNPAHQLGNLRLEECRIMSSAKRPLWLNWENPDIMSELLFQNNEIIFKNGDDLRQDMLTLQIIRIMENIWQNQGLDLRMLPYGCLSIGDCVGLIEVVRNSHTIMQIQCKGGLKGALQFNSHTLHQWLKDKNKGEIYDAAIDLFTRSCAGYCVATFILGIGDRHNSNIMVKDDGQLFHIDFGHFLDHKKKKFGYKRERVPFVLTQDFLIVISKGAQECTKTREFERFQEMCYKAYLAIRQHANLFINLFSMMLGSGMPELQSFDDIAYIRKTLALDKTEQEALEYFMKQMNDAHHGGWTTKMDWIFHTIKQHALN
T3 sequence (P27986 whole entry partner): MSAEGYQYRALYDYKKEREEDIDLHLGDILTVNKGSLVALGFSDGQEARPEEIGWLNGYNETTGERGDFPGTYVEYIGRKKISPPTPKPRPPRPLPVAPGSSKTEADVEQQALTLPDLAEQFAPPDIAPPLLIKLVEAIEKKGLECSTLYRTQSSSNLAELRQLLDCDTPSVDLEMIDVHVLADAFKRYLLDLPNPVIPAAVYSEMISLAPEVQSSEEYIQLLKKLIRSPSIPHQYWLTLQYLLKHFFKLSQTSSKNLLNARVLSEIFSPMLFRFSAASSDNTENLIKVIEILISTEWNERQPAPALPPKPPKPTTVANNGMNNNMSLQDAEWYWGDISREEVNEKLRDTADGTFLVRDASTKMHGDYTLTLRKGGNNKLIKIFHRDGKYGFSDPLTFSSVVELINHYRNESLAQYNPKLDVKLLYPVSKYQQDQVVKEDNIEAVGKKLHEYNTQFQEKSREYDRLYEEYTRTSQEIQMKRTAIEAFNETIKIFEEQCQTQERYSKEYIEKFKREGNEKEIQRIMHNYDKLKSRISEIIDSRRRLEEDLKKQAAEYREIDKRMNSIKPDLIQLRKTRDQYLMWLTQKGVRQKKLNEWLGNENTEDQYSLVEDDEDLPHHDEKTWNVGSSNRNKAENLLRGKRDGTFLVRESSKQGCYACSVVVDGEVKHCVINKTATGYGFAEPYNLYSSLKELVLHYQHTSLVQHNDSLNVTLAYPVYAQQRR
T2 sequence (O00329 whole entry): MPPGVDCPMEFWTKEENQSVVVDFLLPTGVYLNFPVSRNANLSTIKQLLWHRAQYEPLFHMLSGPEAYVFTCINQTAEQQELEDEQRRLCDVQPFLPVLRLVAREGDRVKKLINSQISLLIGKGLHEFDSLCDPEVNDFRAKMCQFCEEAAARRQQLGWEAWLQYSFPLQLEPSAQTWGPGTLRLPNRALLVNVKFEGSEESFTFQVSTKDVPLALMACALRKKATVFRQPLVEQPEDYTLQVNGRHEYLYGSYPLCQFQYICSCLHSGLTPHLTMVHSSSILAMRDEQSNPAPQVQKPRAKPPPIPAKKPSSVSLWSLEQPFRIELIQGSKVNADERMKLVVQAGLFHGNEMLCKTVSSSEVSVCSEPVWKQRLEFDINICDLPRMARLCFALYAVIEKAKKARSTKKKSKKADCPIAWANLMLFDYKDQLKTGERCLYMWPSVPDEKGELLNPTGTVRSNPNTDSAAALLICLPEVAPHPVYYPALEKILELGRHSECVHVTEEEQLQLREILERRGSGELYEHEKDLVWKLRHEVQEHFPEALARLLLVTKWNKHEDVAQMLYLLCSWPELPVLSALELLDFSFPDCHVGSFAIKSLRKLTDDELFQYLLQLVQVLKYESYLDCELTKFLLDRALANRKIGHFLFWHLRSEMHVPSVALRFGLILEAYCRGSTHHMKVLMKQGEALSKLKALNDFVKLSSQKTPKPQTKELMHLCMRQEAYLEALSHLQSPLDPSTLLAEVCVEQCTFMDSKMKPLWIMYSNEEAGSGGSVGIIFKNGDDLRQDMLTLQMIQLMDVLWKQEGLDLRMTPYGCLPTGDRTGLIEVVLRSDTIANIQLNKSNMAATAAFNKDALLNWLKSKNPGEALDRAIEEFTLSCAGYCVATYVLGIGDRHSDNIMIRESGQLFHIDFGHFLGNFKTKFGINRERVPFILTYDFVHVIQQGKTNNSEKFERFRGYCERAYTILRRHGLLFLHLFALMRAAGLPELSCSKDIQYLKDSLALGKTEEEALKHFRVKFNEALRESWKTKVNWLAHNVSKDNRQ
T2 sequence (P27986 whole entry partner): as the sequence (P27986 whole entry partner) above
T1 sequence (P48736 whole entry): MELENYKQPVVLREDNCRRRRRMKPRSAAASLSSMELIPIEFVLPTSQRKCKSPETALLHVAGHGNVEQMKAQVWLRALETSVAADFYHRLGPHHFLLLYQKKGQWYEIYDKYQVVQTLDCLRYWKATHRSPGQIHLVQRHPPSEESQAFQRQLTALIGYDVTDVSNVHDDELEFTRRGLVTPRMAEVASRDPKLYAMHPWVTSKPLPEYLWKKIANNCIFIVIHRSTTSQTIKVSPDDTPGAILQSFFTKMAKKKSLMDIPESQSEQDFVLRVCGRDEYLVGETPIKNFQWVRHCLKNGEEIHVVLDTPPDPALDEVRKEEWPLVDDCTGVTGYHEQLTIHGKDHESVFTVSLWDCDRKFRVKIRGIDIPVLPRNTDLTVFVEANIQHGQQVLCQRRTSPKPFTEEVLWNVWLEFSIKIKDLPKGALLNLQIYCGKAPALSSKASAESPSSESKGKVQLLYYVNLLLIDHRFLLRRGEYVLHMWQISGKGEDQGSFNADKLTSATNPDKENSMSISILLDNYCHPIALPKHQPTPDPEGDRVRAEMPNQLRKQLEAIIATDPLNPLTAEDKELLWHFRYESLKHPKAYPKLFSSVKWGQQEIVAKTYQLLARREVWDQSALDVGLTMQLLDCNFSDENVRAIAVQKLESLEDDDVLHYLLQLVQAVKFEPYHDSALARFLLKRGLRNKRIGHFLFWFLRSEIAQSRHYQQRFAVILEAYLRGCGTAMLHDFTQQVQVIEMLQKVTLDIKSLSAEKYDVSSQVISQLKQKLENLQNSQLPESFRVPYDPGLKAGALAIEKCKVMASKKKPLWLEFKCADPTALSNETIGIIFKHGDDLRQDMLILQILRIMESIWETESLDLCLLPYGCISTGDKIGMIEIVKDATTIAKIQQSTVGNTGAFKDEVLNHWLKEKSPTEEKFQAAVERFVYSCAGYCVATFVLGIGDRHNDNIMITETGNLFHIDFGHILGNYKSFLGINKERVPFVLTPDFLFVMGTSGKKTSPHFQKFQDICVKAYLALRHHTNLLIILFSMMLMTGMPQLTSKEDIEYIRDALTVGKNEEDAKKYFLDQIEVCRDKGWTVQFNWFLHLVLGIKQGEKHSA
T4 sequence (P42338 whole entry): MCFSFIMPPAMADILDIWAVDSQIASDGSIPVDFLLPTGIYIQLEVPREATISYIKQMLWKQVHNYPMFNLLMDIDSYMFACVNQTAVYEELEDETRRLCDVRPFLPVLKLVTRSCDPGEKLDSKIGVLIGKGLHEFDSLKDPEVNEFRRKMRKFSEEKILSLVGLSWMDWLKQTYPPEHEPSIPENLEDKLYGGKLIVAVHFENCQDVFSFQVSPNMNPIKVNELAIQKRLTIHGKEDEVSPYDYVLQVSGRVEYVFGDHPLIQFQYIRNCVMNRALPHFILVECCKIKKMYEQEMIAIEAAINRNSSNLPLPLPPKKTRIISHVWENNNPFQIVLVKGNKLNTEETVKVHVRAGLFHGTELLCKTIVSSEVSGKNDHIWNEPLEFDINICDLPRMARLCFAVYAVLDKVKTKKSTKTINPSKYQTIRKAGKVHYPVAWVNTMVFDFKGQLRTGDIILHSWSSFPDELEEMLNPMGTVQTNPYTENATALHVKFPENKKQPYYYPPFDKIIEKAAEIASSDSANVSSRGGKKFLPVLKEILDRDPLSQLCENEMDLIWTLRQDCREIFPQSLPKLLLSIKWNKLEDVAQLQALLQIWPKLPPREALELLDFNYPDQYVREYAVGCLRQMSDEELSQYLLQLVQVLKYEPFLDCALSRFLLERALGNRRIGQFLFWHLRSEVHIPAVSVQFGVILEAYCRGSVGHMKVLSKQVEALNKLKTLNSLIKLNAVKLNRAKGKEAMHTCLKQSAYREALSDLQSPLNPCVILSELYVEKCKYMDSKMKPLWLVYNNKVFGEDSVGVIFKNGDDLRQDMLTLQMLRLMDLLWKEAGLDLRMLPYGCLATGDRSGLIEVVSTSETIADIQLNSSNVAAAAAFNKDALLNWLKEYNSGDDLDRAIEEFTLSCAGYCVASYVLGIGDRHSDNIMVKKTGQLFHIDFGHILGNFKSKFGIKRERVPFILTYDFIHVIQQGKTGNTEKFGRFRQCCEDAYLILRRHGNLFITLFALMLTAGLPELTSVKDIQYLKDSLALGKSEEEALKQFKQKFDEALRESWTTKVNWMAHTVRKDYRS
T4 sequence (P27986 whole entry partner): as the sequence (P27986 whole entry partner) above

IC50 (PI3K γ) [nM] | IC50 (PI3K δ) [nM] | IC50 (PI3K α) [nM] | IC50 (PI3K β) [nM] | SMILES | EC50 (Balb/c splenic B cells; [4]) [nM] | also measured
< 100 | < 100 | > 10000 | < 1000 | CCc1ccccc1-n1c(Cn2nc(-c3cc(O)cc(F)c3)c3c(N)ncnc32)nc2scc(C)c2c1=O [Compound 292] | < 100 | –
> 10000 | < 100 | < 10000 | < 1000 | Cc1csc2nc(Cn3nc(-c4cc(O)cc(F)c4)c4c(N)ncnc43)n(-c3ccccc3Cl)c(=O)c12 [Compound 296] | < 100 | –
> 10000 | < 100 | > 10000 | < 10000 | Cc1cccnc1-n1c(Cn2nc(-c3cc(O)cc(F)c3)c3c(N)ncnc32)nc2scc(C)c2c1=O [Compound 297] | < 100 | –

Continued, compound first:

SMILES | IC50 (PI3K γ) [nM] | IC50 (PI3K δ) [nM] | IC50 (PI3K α) [nM] | IC50 (PI3K β) [nM] | EC50 (Balb/c splenic B cells; [4]) [nM] | also measured
CC(=O)Nc1nc2ccc(-c3nn(Cc4cc5cccc(C)c5c(=O)n4-c4ccccc4C)c4ncnc(N)c34)cc2s1 [#53] | – | – | – | – | – | average paw volume increase ([1]; FIG. 10): dose dependent reduction; toxicity or other adverse reaction as measured by weight loss ([1]; FIG. 11, average weight over time): does not exhibit toxicity or other adverse reaction; mean ankle diameter increase over time ([2]; once daily dosage, FIG. 8): significant reduction; mean ankle diameter increase over time ([2]; twice daily dosage, FIG. 9): significant reduction; ankle histopathology, all categories ([3]; 60 mg/kg, FIG. 4): statistically significant reduction in all categories; serum anti-type II collagen levels ([3]; 10, 20, and 60 mg/kg dosage levels, FIG. 6): significant reduction; arthritis induced ankle diameter increase over time ([3]; 10, 30, and 60 mg/kg at 12 hour intervals, oral, relative to vehicle or methotrexate control): significant reduction; knee histopathology ([3]; FIG. 5): dose dependent reduction; ankle histopathology (inflammation, pannus, cartilage damage, bone resorption) ([3]; oral, 12 hour intervals, FIG. 4): significant reduction in one or more categories
CC(=O)Nc1nc2ccc(-c3nn(Cc4cc5cccc(C)c5c(=O)n4-c4ccccc4C)c4ncnc(N)c34)cc2s1 [Compound 53] | – | – | – | – | – | EC50 (Balb/c splenic B cells; read-out: B cell proliferation EC50 (nM)): < 100 nM; inhibition of allergen induced activation of basophilic granulocytes (basophilic granulocytes): sub micromolar range
CCc1ccccc1-n1c(Cn2nc(Br)c3c(N)ncnc32)nc2scc(C)c2c1=O [Compound 283] | < 100 | < 100 | > 10000 | < 10000 | < 100 | –
Cc1csc2nc(Cn3nc(I)c4c(N)ncnc43)n(-c3ccccc3C(C)C)c(=O)c12 [Compound 284] | < 100 | < 100 | > 10000 | < 10000 | < 100 | –
Cc1csc2nc(Cn3nc(Br)c4c(N)ncnc43)n(-c3ccccc3Cl)c(=O)c12 [Compound 286] | < 1000 | < 100 | > 10000 | < 10000 | < 100 | –
CCc1ccccc1-n1c(Cn2nc(-c3cccc(O)c3)c3c(N)ncnc32)nc2scc(C)c2c1=O [Compound 290] | < 100 | < 100 | > 10000 | < 10000 | < 100 | –
